Experimental data: ChEMBL document CHEMBL5244275, “Geminal Diheteroatomic Motifs: Some Applications of Acetals, Ketals, and Their Sulfur and Nitrogen Homologues in Medicinal Chemistry and Drug Design” (J Med Chem, 2021)

Biological target: Substance-P receptor (Homo sapiens, UniProt P25103)
Assay: Displacement of [125I]-labeled SP from human NK-1 receptor expressed in CHO cells
Format: cell-based
Conditions: not given

Substance-P receptor, sequence (P25103 whole entry): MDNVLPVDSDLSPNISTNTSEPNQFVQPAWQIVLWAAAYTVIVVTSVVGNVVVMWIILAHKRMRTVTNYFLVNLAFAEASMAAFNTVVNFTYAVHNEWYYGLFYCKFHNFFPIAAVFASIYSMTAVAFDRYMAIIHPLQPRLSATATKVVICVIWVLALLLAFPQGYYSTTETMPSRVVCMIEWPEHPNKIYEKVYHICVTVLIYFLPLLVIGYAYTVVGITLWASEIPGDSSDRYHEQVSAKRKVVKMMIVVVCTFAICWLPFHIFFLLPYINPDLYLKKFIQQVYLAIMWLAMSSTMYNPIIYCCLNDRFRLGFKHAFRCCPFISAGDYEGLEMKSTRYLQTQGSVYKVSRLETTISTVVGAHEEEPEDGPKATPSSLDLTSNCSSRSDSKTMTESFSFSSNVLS

Compound	IC50 [nM]
Fc1ccc([C@@H]2NCCO[C@@]23C[C@@H](c2ccccc2C(F)(F)F)CO3)cc1	24
Fc1ccc([C@@H]2NCCO[C@]23CC[C@H](c2ccccc2C(F)(F)F)CO3)cc1	400
Fc1ccc([C@@H]2NCCO[C@@]23CC[C@@H](c2ccccc2C(F)(F)F)CO3)cc1	28

System: not listed separately
Assay: Dissociation constant, pKa of the compound
Format: physicochemical
Conditions: not given

Compound	pKa
CCC(C)n1ncn(-c2ccc(N3CCN(c4ccc(OCC5COC(Cn6cncn6)(c6ccc(Cl)cc6Cl)O5)cc4)CC3)cc2)c1=O (stereo not given) [ITRACONAZOLE]	3.7

System: not listed separately
Assay: Stability of the compound in 1M HCL buffer assessed as drug degradation by measuring rate constant by FRET-based assay
Format: physicochemical
Conditions: not given

Compound	K
COc1cc(/N=N/c2ccc([N+](=O)[O-])cc2)c(OC)cc1/N=N/c1ccc(N(C)CCCC(=O)NCCSC2CC(=O)N(CC3OCC(C(=O)NCCCNC(=O)c4ccc(C(=O)[O-])c(-c5c6ccc(=[N+](C)C)cc-6oc6cc(N(C)C)ccc56)c4)O3)C2=O)cc1 (stereo not given)	1.59 10^-6/s
COc1cc(/N=N/c2ccc([N+](=O)[O-])cc2)c(OC)cc1/N=N/c1ccc(N(C)CCCC(=O)NCCSC2CC(=O)N(CC3CCC(C(=O)NCCCNC(=O)c4ccc(C(=O)[O-])c(-c5c6ccc(=[N+](C)C)cc-6oc6cc(N(C)C)ccc56)c4)CC3)C2=O)cc1 (stereo not given)	3.06 10^-7/s
COc1cc(/N=N/c2ccc([N+](=O)[O-])cc2)c(OC)cc1/N=N/c1ccc(N(C)CCCC(=O)NCCSC2CC(=O)N(CCC3OCC(C(=O)NCCCNC(=O)c4ccc(-c5c6ccc(=[N+](C)C)cc-6oc6cc(N(C)C)ccc56)c(C(=O)[O-])c4)CO3)C2=O)cc1 (stereo not given)	2.28 10^-6/s
COc1cc(/N=N/c2ccc([N+](=O)[O-])cc2)c(OC)cc1/N=N/c1ccc(N(C)CCCC(=O)NCCSC2CC(=O)N(CCC3OCC(C(=O)NCCCNC(=O)c4ccc(-c5c6ccc(=[N+](C)C)cc-6oc6cc(N(C)C)ccc56)c(C(=O)[O-])c4)O3)C2=O)cc1 (stereo not given)	4.61 10^-6/s
COc1cc(/N=N/c2ccc([N+](=O)[O-])cc2)c(OC)cc1/N=N/c1ccc(N(C)CCCC(=O)NCCSC2CC(=O)N(CC3OCC(C(=O)NCCCNC(=O)c4ccc(C(=O)[O-])c(-c5c6ccc(=[N+](C)C)cc-6oc6cc(N(C)C)ccc56)c4)CO3)C2=O)cc1 (stereo not given)	3.8 10^-7/s

System: not listed separately
Assay: Chemical stability of the compound assessed as acid-catalyzed hydrolysis by measuring rate constant
Format: physicochemical
Conditions: not given

Compound	Drug metabolism
Nc1ncnc2c1ncn2[C@H]1CC[C@@H](CO)O1	35 L/mol/min
Nc1ncnc2c1ncn2[C@@H]1O[C@H](CO)[C@@H](O)[C@H]1O [ADENOSINE]	0.82 10^-3L/mol/min
Nc1ncnc2c1ncn2[C@H]1C[C@H](O)[C@@H](CO)O1 [DEOXYADENOSINE]	0.96 L/mol/min
Nc1ncnc2c1ncn2[C@@H]1O[C@H](CO)C[C@@H]1O	0.057 L/mol/min
Nc1ncnc2c1ncn2[C@@H]1O[C@H](CO)C[C@H]1O [CORDYCEPIN]	0.012 L/mol/min
Nc1ncnc2c1ncn2[C@@H]1O[C@H](CO)[C@H](O)[C@H]1O	0.29 10^-3L/mol/min
Nc1ncnc2c1ncn2[C@@H]1O[C@H](CO)[C@H](O)[C@@H]1O	9.6 10^-3L/mol/min

System: not listed separately
Assay: Stability of the compound in HCL solution assessed as compound hydrolysis by measuring relative rate constant by NMR analysis
Format: physicochemical
Conditions: buffer

Compound	K
COC1(OC)OCCCO1	2.6 10^8No_unit
c1ccc2c(c1)CCOC1(CCCCC1)O2	1.3 10^8No_unit
CCOC1(OCC)OCCCO1	2.3 10^9No_unit
c1ccc2c(c1)COC1(CCCCC1)OC2	3.3 10^6No_unit
C1COCOC1	1
c1ccc2c(c1)COC1(CCCCC1)O2	2.1 10^4No_unit
C1CCC2(CC1)OCCO2	5.4 10^5No_unit
C1CCC2(CC1)OCCCCO2	1 10^8No_unit
CCC1(C)OCCCO1	3.7 10^6No_unit
c1ccc2c(c1)OC1(CCCCC1)O2	1
CCC1OCCCO1	1 10^2No_unit
CCOC1(OCC)CCCCC1	1.3 10^10No_unit
COC1OCCCO1	9.3 10^4No_unit
COC1(C)OCCCO1	2.4 10^9No_unit
C1CCC2(CC1)OCCCO2	2.1 10^7No_unit

System: not listed separately
Assay: Oral bioavailability in rat
Format: ADME, organism-based
Conditions: in vivo

Compound	bioavailability [%]
c1cc([C@H]2CC[C@]3(CC2)OOC2(O3)C3CC4CC(C3)CC2C4)ccc1OCCN1CCOCC1 (stereo not given in full)	76

System: not listed separately
Assay: Oral bioavailability in dog
Format: ADME, organism-based, Canis lupus familiaris
Conditions: in vivo

Compound	bioavailability [%]
C[C@@H](c1c[nH]c2ccccc12)[C@H](C(=O)NC[C@H]1OC[C@H](N)CO1)N1CCN(CCCc2ccccc2)C1=O	19
C[C@@H](c1c[nH]c2ccccc12)[C@H](C(=O)NC[C@H]1OC[C@H](N)CO1)N1CCN(CCC(c2ccccc2)c2ccccc2)C1=O	64

System: not listed separately
Assay: Inhibition of Leukotriene B4 production in human blood Polymorphonuclear neutrophil cells
Format: functional, tissue-based
Conditions: not given

Compound	IC50 [nM]
O=C1OCc2c1cc1cc(OCc3cccc(C4(O)CC5COC(C4)O5)c3)ccc1c2-c1ccccc1 (stereo not given)	6
